According to article PMC12627627 (Nature Communications, 2025):
Substitutions are numbered along the chain they refer to. Several values for one entry are separate records, joined by “and”; a condition that tells them apart may be missing. Equal values may be shown once.

How the values were obtained:
[1] = target: T1, R12 domain of RyR1 (Homo sapiens, UniProt P21817); test: ITC, R12 domain of RyR1; type: binding
T1 construct: RyR1 854–1054, RyR2 865–1065, RyR3 853–1053; made in house; host or cells: E. coli BL21 (DE3)
T1 sequence (P21817 854-1054): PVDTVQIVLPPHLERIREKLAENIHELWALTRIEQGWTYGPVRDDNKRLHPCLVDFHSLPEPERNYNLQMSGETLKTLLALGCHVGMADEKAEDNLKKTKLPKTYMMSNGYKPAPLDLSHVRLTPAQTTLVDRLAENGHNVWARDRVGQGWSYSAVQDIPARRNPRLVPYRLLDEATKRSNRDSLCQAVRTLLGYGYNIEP
Experimental: (§1) The plasmids were subsequently transformed into E. coli BL21 (DE3) cells (NEB, USA) and cultured in Luria-Bertani (LB) media at 37 °C. Protein expression was induced with 0.4 mM isopropyl β-D-thiogalactoside (IPTG) when the optical density (OD)600 reached ~0.8, followed by incubation at 18 °C for 12 h. The cells were harvested via centrifugation at 5,000 × g for 15 min at 4 °C and homogenized in Buffer A (10 mM HEPES, pH 7.4, 250 mM KCl) supplemented with 25 µg/mL DNaseI, 25 µg/mL lysozyme, 1 mM phenylmethylsulfonyl fluoride (PMSF), and 20 mM imidazole. The homogenate was centrifuged at 12,000 × g for 45 min, and the supernatant was filtered through a syringe filter (0.22 µm).
(§2) Purified R12 domain protein from the three RyR isoforms, fused with hexahistidine-tagged MBP (HMT-R12) was dialyzed overnight at 4 °C in ITC buffer (200 mM HEPES, pH 7.4, 150 mM KCl). ITC experiments were performed using a PEAQ-ITC instrument (Malvern, UK) at 25 °C with a stirring speed of 750 rpm. […] For the ternary binding experiments, 500 μM or 5 mM AMP-PCP/ADP was preincubated with both the titrants and titrates. […] The data was fit to a one-site fitting model after background buffer subtraction. The RyR1 R12 mutants were generated using a QuikChange mutagenesis kit (Stratagene) according to the manufacturer’s protocol, with primer sequences listed in Supplementary Table 3.

[2] = target: T2, RyR1-W995A R12 (Homo sapiens, UniProt P21817, W995A); test: ITC, RyR1 R12 W995A; type: binding
T2 construct: RyR1 854–1054, RyR2 865–1065, RyR3 853–1053; made in house; host or cells: E. coli BL21 (DE3)
T2 sequence (P21817 854-1054 W995A): T1 sequence (P21817 854-1054) with W142A
Experimental: as §1, §2

[3] = target: T3, WT RyR1 (Oryctolagus cuniculus, UniProt P11716); test: Ca2+-dependent [3H]ryanodine binding, microsomes; type: biochemical; settings: for [3H]ryanodine binding (B/Bmax): Fig. 5C source data, RI-2 100 μM, single replicates
T3 construct: expressed in transfected cells
Experimental: The assay was performed as previously described[44],[45] with minor modifications. Briefly, microsomes from HEK293 cells stably expressing WT RyR1 were incubated with 5 nM [³H]ryanodine for 5 h at 25 °C in a medium containing 0.17 M NaCl, 20 mM MOPSO (pH 7.0), 2 mM dithiothreitol, 1 mM β,γ-methyleneadenosine 5′-triphosphate, and free Ca²⁺ buffered with 10 mM EGTA at varying concentrations. Free Ca²⁺ levels were calculated using WEBMAXC […][46]. Protein-bound [³H]Ryanodine (B) was isolated by filtration through polyethyleneimine-treated GF/B filters (Whatman) using a Micro 96 Cell Harvester (Skatron Instruments). Nonspecific binding was assessed by adding 20 µM unlabeled ryanodine. The maximum binding capacity of [³H]ryanodine (Bmax) was determined via Scatchard plot analysis with various concentrations (3–20 nM) of [³H]ryanodine in a high-salt medium containing 1 M NaCl. The resulting B/Bmax values represent the average activity of the cells.

[4] = target: T3, WT RyR1; test: Time-lapse [Ca2+]ER measurement, HEK293 cells expressing WT RyR1; type: cell-based; settings: Fig. 5H source data, 4 mM caffeine, single replicates
[5] = RyR1 R12, no nucleotide, ITC 25 °C

T3 sequence (P11716 whole entry): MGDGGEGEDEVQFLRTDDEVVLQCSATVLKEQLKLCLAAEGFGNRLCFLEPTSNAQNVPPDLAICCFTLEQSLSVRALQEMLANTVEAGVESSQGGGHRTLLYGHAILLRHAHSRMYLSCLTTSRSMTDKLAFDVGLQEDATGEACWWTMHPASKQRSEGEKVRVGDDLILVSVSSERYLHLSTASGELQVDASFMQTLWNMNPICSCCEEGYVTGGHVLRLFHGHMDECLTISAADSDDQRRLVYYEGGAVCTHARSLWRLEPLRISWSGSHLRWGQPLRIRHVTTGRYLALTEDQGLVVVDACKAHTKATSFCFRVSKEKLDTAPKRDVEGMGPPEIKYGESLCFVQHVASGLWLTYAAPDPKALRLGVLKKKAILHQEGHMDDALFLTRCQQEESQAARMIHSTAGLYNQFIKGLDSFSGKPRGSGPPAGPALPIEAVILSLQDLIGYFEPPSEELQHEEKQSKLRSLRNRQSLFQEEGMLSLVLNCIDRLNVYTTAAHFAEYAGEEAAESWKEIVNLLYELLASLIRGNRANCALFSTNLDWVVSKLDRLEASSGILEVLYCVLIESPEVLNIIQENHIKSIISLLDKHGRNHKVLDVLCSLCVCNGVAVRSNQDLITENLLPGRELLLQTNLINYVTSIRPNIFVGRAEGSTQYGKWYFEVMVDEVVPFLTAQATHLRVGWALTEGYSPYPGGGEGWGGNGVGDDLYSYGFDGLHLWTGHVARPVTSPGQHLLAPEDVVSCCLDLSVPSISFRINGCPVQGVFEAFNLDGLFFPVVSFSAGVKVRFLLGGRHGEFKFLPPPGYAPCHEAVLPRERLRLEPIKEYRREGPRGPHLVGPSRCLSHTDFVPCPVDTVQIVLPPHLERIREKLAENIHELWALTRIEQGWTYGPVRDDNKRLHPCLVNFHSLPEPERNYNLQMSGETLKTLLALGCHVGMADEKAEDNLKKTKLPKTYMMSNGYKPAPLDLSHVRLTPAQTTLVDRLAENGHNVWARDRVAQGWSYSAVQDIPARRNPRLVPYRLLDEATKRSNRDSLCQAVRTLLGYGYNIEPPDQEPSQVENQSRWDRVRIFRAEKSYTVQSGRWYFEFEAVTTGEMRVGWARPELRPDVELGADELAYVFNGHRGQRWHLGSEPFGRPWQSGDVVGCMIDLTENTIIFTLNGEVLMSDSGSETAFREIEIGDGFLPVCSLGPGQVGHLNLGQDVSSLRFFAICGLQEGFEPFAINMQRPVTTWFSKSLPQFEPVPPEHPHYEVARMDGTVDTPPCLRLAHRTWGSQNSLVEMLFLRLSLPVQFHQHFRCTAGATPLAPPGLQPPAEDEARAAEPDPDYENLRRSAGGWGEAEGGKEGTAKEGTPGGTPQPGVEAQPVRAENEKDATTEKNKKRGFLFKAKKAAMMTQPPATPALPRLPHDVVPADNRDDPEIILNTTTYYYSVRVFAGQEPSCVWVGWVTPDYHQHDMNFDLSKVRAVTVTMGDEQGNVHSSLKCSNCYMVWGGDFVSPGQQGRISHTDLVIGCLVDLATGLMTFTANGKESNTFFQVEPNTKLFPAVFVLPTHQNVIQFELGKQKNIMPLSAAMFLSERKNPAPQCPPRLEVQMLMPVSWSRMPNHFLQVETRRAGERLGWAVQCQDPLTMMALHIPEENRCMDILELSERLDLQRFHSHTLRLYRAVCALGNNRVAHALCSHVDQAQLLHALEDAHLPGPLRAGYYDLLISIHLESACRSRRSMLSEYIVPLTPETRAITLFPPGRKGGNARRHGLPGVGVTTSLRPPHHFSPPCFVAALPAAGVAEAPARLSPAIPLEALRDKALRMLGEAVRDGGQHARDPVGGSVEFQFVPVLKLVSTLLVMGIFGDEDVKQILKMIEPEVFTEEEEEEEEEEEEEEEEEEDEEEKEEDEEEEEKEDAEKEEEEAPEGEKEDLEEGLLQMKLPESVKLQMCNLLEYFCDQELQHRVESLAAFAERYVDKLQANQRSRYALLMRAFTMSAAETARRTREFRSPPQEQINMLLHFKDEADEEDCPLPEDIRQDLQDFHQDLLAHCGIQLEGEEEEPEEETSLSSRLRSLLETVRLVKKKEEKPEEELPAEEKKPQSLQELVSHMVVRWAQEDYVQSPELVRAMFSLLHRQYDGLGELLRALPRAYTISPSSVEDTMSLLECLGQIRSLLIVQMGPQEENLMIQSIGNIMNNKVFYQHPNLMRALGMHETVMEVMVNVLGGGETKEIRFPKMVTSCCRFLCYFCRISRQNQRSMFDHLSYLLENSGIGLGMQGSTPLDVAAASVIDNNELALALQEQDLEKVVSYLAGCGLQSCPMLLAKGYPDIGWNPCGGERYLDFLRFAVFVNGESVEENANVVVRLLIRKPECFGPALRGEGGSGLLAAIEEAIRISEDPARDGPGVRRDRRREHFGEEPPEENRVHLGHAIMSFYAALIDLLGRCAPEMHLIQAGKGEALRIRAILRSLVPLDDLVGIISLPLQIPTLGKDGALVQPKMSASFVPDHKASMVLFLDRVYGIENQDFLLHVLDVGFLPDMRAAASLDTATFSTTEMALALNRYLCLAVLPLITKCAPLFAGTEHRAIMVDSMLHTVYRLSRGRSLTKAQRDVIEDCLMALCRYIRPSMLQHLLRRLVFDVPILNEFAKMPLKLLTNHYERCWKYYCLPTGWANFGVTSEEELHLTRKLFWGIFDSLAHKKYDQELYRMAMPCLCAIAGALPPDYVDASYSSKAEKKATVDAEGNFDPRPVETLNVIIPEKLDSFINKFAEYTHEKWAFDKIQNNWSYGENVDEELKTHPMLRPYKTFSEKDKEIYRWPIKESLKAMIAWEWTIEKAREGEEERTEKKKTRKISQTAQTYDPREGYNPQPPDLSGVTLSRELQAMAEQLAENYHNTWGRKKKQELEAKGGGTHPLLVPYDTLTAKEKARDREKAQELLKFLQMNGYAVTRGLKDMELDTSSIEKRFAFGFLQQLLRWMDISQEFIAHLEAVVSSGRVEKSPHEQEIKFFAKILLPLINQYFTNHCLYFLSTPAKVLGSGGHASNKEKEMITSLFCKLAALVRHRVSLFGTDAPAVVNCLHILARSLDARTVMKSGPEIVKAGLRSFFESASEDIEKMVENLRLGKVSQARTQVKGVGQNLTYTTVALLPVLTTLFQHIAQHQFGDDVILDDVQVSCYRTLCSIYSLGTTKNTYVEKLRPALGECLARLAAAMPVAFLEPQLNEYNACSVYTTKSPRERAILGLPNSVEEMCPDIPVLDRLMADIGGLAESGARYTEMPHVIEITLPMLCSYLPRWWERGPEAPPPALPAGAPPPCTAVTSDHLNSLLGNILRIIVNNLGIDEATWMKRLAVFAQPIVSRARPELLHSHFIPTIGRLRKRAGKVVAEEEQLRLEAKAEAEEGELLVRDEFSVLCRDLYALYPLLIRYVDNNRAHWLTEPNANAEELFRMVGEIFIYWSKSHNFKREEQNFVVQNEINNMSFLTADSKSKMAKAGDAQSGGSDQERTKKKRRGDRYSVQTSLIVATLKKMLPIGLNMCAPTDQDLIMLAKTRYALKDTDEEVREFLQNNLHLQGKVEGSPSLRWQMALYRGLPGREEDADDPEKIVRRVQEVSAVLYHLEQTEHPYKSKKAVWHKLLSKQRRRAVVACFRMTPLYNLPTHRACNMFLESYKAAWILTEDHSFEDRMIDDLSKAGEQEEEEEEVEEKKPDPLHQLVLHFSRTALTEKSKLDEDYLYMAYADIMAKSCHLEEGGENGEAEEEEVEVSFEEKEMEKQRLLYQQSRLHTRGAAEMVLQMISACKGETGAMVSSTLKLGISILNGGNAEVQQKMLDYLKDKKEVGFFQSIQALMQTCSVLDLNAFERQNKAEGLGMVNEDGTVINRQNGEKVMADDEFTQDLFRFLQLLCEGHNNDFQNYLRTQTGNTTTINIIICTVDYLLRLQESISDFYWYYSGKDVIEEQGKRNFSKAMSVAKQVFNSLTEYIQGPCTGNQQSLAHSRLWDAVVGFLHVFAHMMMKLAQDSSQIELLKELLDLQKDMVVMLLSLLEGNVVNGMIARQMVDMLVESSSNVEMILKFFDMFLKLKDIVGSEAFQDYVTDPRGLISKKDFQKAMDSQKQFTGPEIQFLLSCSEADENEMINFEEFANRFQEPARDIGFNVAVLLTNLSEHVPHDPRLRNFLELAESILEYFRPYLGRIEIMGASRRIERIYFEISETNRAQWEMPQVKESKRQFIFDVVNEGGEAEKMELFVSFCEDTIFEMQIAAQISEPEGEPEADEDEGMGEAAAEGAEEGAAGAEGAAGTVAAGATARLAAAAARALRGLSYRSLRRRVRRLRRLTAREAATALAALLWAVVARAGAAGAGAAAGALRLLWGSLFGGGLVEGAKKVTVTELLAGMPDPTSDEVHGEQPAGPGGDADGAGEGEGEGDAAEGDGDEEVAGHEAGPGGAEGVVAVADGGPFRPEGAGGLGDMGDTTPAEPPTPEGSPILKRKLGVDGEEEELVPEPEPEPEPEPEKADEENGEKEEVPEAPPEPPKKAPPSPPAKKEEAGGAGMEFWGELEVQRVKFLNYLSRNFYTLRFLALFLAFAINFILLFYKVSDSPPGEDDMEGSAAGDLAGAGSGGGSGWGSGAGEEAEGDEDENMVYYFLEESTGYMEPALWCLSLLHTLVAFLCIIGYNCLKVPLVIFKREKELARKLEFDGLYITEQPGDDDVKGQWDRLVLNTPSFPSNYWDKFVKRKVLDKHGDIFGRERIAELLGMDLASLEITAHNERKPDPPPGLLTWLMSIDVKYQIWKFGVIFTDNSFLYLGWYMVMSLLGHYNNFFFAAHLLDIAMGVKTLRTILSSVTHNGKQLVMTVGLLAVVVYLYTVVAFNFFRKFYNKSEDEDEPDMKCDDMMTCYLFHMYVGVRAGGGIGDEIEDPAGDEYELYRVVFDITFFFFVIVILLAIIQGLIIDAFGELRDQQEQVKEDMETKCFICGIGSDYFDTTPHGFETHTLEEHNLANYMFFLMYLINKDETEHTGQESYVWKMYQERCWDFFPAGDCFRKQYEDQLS

Row | SMILES | Kd ([1]; RyR1 R12 + 500 µM ADP) [µM] | No of Sites (N) ([1]; RyR1 R12 + 500 µM ADP) | ΔH ([1]; RyR1 R12 + 500 µM ADP) [kcal/mol] | −TΔS ([1]; RyR1 R12 + 500 µM ADP) [kcal/mol] | No of Sites (N) ([1]; RyR1 R12 + 500 µM AMP-PCP) | ΔH ([1]; RyR1 R12 + 500 µM AMP-PCP) [kcal/mol] | −TΔS ([1]; RyR1 R12 + 500 µM AMP-PCP) [kcal/mol] | Kd ([1]; RyR1 R12 + 5 mM ADP) [µM] | No of Sites (N) ([1]; RyR1 R12 + 5 mM ADP) | ΔH ([1]; RyR1 R12 + 5 mM ADP) [kcal/mol] | −TΔS ([1]; RyR1 R12 + 5 mM ADP) [kcal/mol] | Kd ([1]; RyR1 R12 + 5 mM AMP-PCP) [µM] | No of Sites (N) ([1]; RyR1 R12 + 5 mM AMP-PCP) | ΔH ([1]; RyR1 R12 + 5 mM AMP-PCP) [kcal/mol] | −TΔS ([1]; RyR1 R12 + 5 mM AMP-PCP) [kcal/mol] | No of Sites (N) ([1]; RyR1 R12, no nucleotide) | ΔH ([1]; RyR1 R12, no nucleotide) [kcal/mol] | −TΔS ([1]; RyR1 R12, no nucleotide) [kcal/mol] | Kd [1, 5] | also measured
1 | O=C1CN(/N=C/c2ncc(-c3ccc(Br)cc3)o2)C(=O)N1 [AZU, Azumolene] | 0.241 ± 0.031 | 0.652 ± 0.16 | -7.92 ± 0.91 | -1.11 | 0.904 ± 0.52 | -2.99 ± 0.47 | -6.48 | 0.06 ± 0.012 | 0.489 ± 0.28 | -8.45 ± 0.94 | -1.40 | 0.046 ± 0.014 | 0.718 ± 0.50 | -7.75 ± 0.12 | -2.26 | 0.810 ± 0.21 | -80 | 75.60 | 595 µM and 596 µM | binding to RyR1 R12 W995A by ITC ([2]; in the presence of AMP-PCP or ADP): can no longer be detected; binding to RyR1 R12 W995A by ITC ([2]; no nucleotide): completely abolishes
2 | O=C(C[C@@H](NCCCO)C(=O)O)Nc1ccc2ccccc2c1 [RI-2] | 49.1 ± 50.1 | 0.605 ± 0.21 | -3.08 ± 0.20 | -4.30 | 0.721 ± 0.12 | -5.47 ± 0.17 | -2.39 | 3.86 ± 0.975 | 0.912 ± 0.43 | -15.09 ± 11.60 | 10.1 | 0.56 ± 0.17 | 0.547 ± 0.43 | -7.05 ± 0.69 | -0.11 | 0.519 ± 0.25 | -5.61 ± 0.73 | 0.944 | 159 µM and 158 µM | effect on Ca2+-dependent [3H]ryanodine binding ([3]; 100 uM RI-2): inhibitory effect; [3H]ryanodine binding (B/Bmax) ([3]; pCa 2.04): 0.002952 (2×) and 0.002725 and -0.000227; [3H]ryanodine binding (B/Bmax) ([3]; pCa 2.67): 0.005451 and 0.006359 and 0.002952 and 0.002725; [3H]ryanodine binding (B/Bmax) ([3]; pCa 3.39): 0.01453 and 0.0134 and 0.008857 (2×); [3H]ryanodine binding (B/Bmax) ([3]; pCa 4.03): 0.02816 and 0.03452 and 0.02475 and 0.02703; [3H]ryanodine binding (B/Bmax) ([3]; pCa 4.66): 0.04474 and 0.04315 and 0.03702 and 0.03429; [3H]ryanodine binding (B/Bmax) ([3]; pCa 5.03): 0.04565 and 0.04292 and 0.03884 and 0.03702; [3H]ryanodine binding (B/Bmax) ([3]; pCa 5.42): 0.0293 and 0.03838 and 0.02362 and 0.0243; [3H]ryanodine binding (B/Bmax) ([3]; pCa 6): 0.009312 and 0.01272 and 0.009084 and 0.003634; [3H]ryanodine binding (B/Bmax) ([3]; pCa 6.54): 0.005678 and 0.003861 and -0.000454 and 0.00159; [3H]ryanodine binding (B/Bmax) ([3]; pCa 6.97): 0.004088 and 0.006813 and 0.002044 and 0.0009084; [3H]ryanodine binding (B/Bmax) ([3]; pCa 7.49): 0.001136 and 0.002044 (2×) and 0.001363; Kd ([1]; RyR1 R12 + 500 µM AMP-PCP): 1.75 ± 0.29 µM; ER luminal [Ca2+] change (F/F0) ([4]; RI-2 0.1 uM): 0.9624 and 0.9803 and 0.9793; ER luminal [Ca2+] change (F/F0) ([4]; RI-2 0.3 uM): 0.9865 and 0.9725 and 0.9809; ER luminal [Ca2+] change (F/F0) ([4]; RI-2 1 uM): 1.001 and 1.0002 and 0.9956; ER luminal [Ca2+] change (F/F0) ([4]; RI-2 3 uM): 1.043 and 1.036 and 1.039; ER luminal [Ca2+] change (F/F0) ([4]; RI-2 10 uM): 1.092 and 1.122 and 1.066; ER luminal [Ca2+] change (F/F0) ([4]; RI-2 30 uM): 1.229 and 1.248 and 1.218; ER luminal [Ca2+] change (F/F0) ([4]; RI-2 100 uM): 1.681 and 1.622 and 1.659
